Assay type in all cases: cell-based
The target in one test is T1, human TLR9 (Homo sapiens, UniProt Q9NR96).
T1 construct: host or cells: HEK-Blue cells
T1 sequence (Q9NR96 26-1032): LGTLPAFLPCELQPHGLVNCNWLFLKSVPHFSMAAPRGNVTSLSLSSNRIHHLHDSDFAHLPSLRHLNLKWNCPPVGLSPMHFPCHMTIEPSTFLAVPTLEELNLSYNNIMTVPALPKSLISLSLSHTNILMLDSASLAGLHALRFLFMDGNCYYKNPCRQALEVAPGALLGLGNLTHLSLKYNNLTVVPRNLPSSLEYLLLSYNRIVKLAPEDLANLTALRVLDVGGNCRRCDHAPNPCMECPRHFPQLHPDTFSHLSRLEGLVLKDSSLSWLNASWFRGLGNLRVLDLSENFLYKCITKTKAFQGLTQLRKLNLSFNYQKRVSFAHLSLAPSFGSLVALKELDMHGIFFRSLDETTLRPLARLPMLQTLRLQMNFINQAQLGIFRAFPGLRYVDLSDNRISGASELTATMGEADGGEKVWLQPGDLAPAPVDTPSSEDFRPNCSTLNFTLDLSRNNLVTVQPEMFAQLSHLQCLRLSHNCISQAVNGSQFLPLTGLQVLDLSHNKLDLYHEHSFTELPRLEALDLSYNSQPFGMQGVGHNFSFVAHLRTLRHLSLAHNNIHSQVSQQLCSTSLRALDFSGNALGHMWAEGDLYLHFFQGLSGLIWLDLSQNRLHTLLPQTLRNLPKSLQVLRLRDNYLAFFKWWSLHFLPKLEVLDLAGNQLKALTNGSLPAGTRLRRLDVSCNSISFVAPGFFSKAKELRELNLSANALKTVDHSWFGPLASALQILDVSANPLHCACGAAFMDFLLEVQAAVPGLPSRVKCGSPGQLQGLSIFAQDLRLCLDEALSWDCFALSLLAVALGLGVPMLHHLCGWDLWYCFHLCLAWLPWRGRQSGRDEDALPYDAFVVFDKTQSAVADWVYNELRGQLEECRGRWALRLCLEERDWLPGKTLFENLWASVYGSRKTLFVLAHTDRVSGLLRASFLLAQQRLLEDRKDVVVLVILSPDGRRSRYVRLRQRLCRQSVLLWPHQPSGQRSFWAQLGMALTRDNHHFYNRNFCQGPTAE
Description: TLR9 inhibition reporter assay (HEK-Blue cells, SEAP reporter, ODN2006 stimulation). Conditions: HEK-Blue cells overexpressing human TLR9, SEAP reporter, ODN2006 5 nM. In short, it runs like this:
(§1)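 Compound treatment: 30 min, RT, 0.05 nM–50 μM final. Agonist: TLR7 gardiquimod 7.5 μM; TLR8 R848 15.9 μM; TLR9 ODN2006 5 nM. Incubation 22 h, 37 °C, 5% CO2. Readout SEAP, HEK-Blue Detection.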
(In general: A reporter such as luciferase makes a cellular process visible.)

For a further test, the target named is T2, human TLR7 (Homo sapiens, UniProt Q9NYK1).
T2 construct: host or cells: HEK-Blue cells
T2 sequence (Q9NYK1 27-1049): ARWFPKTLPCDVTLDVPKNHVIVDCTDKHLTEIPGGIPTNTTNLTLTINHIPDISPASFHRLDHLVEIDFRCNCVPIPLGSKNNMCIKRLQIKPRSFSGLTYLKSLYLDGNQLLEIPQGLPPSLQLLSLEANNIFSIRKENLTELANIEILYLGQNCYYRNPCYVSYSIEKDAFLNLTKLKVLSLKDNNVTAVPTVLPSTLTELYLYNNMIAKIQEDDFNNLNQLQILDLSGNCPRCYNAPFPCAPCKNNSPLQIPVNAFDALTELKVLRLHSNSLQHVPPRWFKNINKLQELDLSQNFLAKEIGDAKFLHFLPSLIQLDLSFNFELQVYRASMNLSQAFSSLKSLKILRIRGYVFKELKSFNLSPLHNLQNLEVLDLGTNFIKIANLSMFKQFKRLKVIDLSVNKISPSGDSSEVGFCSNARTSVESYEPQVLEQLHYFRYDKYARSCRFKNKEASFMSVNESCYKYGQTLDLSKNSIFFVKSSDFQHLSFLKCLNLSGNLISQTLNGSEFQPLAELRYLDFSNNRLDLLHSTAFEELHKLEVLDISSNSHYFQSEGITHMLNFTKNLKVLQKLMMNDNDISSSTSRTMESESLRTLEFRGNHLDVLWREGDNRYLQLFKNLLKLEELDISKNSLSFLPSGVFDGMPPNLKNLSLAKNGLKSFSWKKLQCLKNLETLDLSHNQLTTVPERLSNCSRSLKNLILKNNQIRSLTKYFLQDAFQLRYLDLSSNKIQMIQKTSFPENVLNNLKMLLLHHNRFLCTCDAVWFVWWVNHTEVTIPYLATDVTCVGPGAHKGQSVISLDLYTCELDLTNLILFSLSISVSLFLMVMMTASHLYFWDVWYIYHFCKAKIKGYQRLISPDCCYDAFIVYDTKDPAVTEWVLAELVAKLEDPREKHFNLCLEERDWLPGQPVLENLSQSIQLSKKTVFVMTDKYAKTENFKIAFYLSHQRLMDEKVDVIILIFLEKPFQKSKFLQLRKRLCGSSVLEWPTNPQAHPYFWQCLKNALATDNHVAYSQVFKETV
Description: TLR7 inhibition reporter assay (HEK-Blue cells, SEAP reporter, gardiquimod stimulation). The settings on record: HEK-Blue cells overexpressing human TLR7, SEAP reporter, gardiquimod 7.5 μM; read-out: TLR7 IC50. In short, it runs like this:
as §1

Another test has as its target T3, human TLR8 (Homo sapiens, UniProt Q9NR97).
T3 construct: host or cells: HEK-Blue cells
T3 sequence (Q9NR97 27-1041): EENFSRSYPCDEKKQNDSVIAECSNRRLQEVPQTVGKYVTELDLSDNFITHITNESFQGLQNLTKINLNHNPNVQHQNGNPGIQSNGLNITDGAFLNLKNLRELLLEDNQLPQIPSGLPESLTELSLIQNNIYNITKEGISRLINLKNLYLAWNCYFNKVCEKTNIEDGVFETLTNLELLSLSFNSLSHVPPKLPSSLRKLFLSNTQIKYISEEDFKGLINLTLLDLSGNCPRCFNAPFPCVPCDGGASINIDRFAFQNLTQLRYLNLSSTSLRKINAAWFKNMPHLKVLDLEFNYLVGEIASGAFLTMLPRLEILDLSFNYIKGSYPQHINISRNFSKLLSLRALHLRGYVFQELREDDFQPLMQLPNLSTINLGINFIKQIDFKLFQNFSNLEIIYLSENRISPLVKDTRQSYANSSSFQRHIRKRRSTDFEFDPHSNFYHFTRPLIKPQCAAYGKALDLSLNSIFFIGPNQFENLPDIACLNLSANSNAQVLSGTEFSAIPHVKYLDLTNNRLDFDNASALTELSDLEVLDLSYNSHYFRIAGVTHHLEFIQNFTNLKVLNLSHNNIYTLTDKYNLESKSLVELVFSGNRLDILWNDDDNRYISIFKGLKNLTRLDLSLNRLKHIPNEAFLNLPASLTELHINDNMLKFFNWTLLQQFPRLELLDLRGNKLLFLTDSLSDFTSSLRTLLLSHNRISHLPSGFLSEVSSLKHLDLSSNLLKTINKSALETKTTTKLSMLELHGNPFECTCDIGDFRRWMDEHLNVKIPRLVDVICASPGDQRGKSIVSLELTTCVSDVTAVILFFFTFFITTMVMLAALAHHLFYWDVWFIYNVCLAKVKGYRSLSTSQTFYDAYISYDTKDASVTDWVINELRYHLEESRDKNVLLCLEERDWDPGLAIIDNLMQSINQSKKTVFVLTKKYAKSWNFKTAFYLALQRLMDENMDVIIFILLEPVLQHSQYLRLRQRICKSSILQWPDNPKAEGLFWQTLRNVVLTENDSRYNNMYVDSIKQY
Briefly: TLR8 inhibition reporter assay (HEK-Blue cells, SEAP reporter, R848 stimulation). The settings on record: HEK-Blue cells overexpressing human TLR8, SEAP reporter, R848 15.9 μM; read-out: TLR8 IC50. In short, it runs like this:
as §1

These results are taken from US20230139171A1 (SITA Information Networking Computing UK Limited, priority 2019, published 2023).

`Cc1c(-c2[nH]c3sc(C4CCC(NC5COC5)CC4)nc3c2C(C)C)cn2ncnc2c1C` (single isomer, unassigned) [Example 184, N-(4-(5-(7,8-dimethyl-[1,2,4]triazolo[1,5-a]pyridin-6-yl)-6-isopropyl-4H-pyrrolo[3,2-d]thiazol-2-yl)cyclohexyl)oxetan-3-amine]: the IC50 (in general, the concentration that gives 50% inhibition) was found to be 11400 nM at human TLR9, 1.01 nM at human TLR7 and 0.84 nM on human TLR8.
Take `CCN(C)C1CCC(c2nc3c(C(C)C)c(-c4cn(C)c5ncccc45)[nH]c3s2)CC1` (single isomer, unassigned) [Example 174, N-ethyl-4-(6-isopropyl-5-(1-methyl-1H-pyrrolo[2,3-b]pyridin-3-yl)-4H-pyrrolo[3,2-d]thiazol-2-yl)-N-methylcyclohexan-1-amine]: the IC50 at human TLR9 amounted to 16000 nM; on human TLR7, 1.84 nM; at human TLR8, 3.13 nM.
Turning to `Cc1cc(-c2[nH]c3sc(C4CCN(C(C)C)CC4)nc3c2C(C)C)cn2ncnc12` [Example 21, 6-isopropyl-2-(1-isopropylpiperidin-4-yl)-5-(8-methyl-[1,2,4]triazolo[1,5-a]pyridin-6-yl)-4H-pyrrolo[3,2-d]thiazole], the IC50 against human TLR9 is > 50000 nM; on human TLR7, 6.89 nM; on human TLR8, 39 nM.
For the compound `COC(C)(C)CNC1CCC(c2nc3c(C(C)C)c(-c4cn(C)c(=O)c(C)c4C)[nH]c3s2)CC1` (single isomer, unassigned) [Example 243, 5-(6-isopropyl-2-(4-((2-methoxy-2-methylpropyl)amino)cyclohexyl)-4H-pyrrolo[3,2-d]thiazol-5-yl)-1,3,4-trimethylpyridin-2(1H)-one], the IC50 came out at 29800 nM on human TLR9, 16.4 nM at human TLR7 and 2.1 nM on human TLR8.
On the same counts, the results for `Cc1c(-c2[nH]c3sc(C4CCC(N5CC(O)(C(F)(F)F)C5)CC4)nc3c2C(C)C)cn2ncnc2c1C` (single isomer, unassigned) [Example 235, 1-(4-(5-(7,8-dimethyl-[1,2,4]triazolo[1,5-a]pyridin-6-yl)-6-isopropyl-4H-pyrrolo[3,2-d]thiazol-2-yl)cyclohexyl)-3-(trifluoromethyl)azetidin-3-ol] are 16600 nM, 1.05 nM and 1.01 nM.
Consider `COc1cc(-c2[nH]c3sc(C4CCC(N5CCC6(CC5)COC6)CC4)nc3c2C(C)C)cn2ncnc12` (single isomer, unassigned) [Example 113, 7-(4-(6-isopropyl-5-(8-methoxy-[1,2,4]triazolo[1,5-a]pyridin-6-yl)-4H-pyrrolo[3,2-d]thiazol-2-yl)cyclohexyl)-2-oxa-7-azaspiro[3.5]nonane], for which the values for the IC50 against human TLR9, on human TLR7 and at human TLR8 were 7800 nM, 1.09 nM and 27.1 nM, respectively.
For the compound `COc1cc(-c2[nH]c3sc(C4CCC(N(C)C(C)C)CC4)nc3c2C(C)C)cn2ncnc12` (single isomer, unassigned) [Example 88, N-isopropyl-4-(6-isopropyl-5-(8-methoxy-[1,2,4]triazolo[1,5-a]pyridin-6-yl)-4H-pyrrolo[3,2-d]thiazol-2-yl)-N-methylcyclohexan-1-amine], the IC50 on human TLR9 worked out at 4450 nM; on human TLR7 it was 0.81 nM; on human TLR8, 1.84 nM.
